Reference: publication PMC11166458, “Caskin2 is a novel talin- and Abi1-binding protein that promotes cell motility” (Journal of Cell Science, 2024)

Experiments:
Caskin2 = assay: GFP-Trap co-IP of Caskin2 by GFP-tagged talin constructs in COS-7 cells; assay type: binding, Human; details: western blot
Description: (§1) For transient expression, COS-7 cells were grown to 70% confluence in 10 cm culture dishes and transfected with plasmid DNAs using the DEAE–dextran method ([Schaapveld et al., 1998]). Briefly, 4.5 µg of plasmid DNA was mixed with 500 µg/ml DEAE–dextran in 2.5 ml PBS. Cells were washed two times with PBS and then incubated for 30 min at 37°C with the DEAE–dextran solution. Subsequently, 80 µM chloroquine was added to the cells in 10 ml DMEM with FCS and cells were incubated at 37°C for 3 h. After aspiration of the medium, the cells were treated with 3 ml of DMEM with FCS containing 10% DMSO for 2.5 min. The DMSO solution was then removed and replaced with fresh medium, after which the cells were further incubated for 48–72 h before analysis.
For analysis of protein in whole-cell lysates, cells were washed three times with cold PBS, lysed in Nonidet P-40 lysis buffer [20 mM Tris-HCl pH 7.5, 100 mM NaCl, 1% NP-40), supplemented with Na3VO4 (1.5 mM), NaF (15 mM), protease inhibitor cocktail (1:1000; Sigma-Aldrich) and phosphatase inhibitor cocktail 3 (1:100; Sigma-Aldrich)] and cleared by centrifugation at 14,000 g for 1 h at 4°C. […]
(§2) GFP-Trap pulldown experiments were performed as follows. Cleared lysates containing equal amounts of proteins, as determined by a Pierce™ BCA Protein Assay, were incubated with GFP-Trap agarose beads (Chromotek) in a rotation wheel for 6 h at 4°C. […]

HA–Abi1 = assay: GFP-Trap co-IP of HA–Abi1 by Caskin2-GFP constructs in COS-7 cells; assay type: binding; details: for HA–Abi1 binding: GFP-Trap, western blot, three independent experiments
Description: as §1
(§3) For analysis of protein in whole-cell lysates, cells were washed three times with cold PBS, lysed in Nonidet P-40 lysis buffer [20 mM Tris-HCl pH 7.5, 100 mM NaCl, 1% NP-40), supplemented with Na3VO4 (1.5 mM), NaF (15 mM), protease inhibitor cocktail (1:1000; Sigma-Aldrich) and phosphatase inhibitor cocktail 3 (1:100; Sigma-Aldrich)] and cleared by centrifugation at 14,000 g for 1 h at 4°C. After addition of an equal volume of 4× sample buffer (200 mM Tris-HCl pH 6.8, 10% SDS, 40% glycerol 0,1% Bromophenol Blue and 2% mercaptoethanol) and heating the samples at 95°C for 5 min, the samples were loaded on Novex NuPAGE 4–12% gradient Bis-Tris gels (Invitrogen) and transferred onto Immobilon® PVDF membranes. Membranes were blocked for at least 2 h in 2% BSA in TBST (10 mM Tris-HCl pH 7.5, 150 mM NaCl with 0.05% Tween 20] before incubation with primary antibody overnight at 4°C and with secondary antibody for 1 h at room temperature. After each incubation step, the membranes were washed twice with TBST and twice with TBS (TBST without Tween 20). Finally, proteins were visualized using Clarity™ Western ECL Substrate (Bio-Rad Laboratories), as described previously ([Wang et al., 2020b]).
(§4) GFP-Trap pulldown experiments were performed as follows. Cleared lysates containing equal amounts of proteins, as determined by a Pierce™ BCA Protein Assay, were incubated with GFP-Trap agarose beads (Chromotek) in a rotation wheel for 6 h at 4°C. Beads were washed three times with Nonidet P-40 lysis buffer and two times with cold PBS. Bound proteins and input samples (whole-cell lysates, 1%) were then loaded on gel and transferred to Immobilon-P transfer membranes, after which the blotted proteins were probed with antibodies, as described above.

GE11tetONβ1 cells = assay: Cell migration (time-lapse cell motility) of GE11tetONβ1 cells; assay type: cell-based; details: 20 h time-lapse, DMEM 1% FCS; two independent experiments
Description: Cell motility assays were conducted using time-lapse recordings of cells cultured on plastic 12-well plates in DMEM containing 1% FCS and 1% antibiotics. Phase-contrast images were acquired using a Zeiss AxioObserver Z.1 microscope equipped with a heated stage (37°C and 5% CO2), with a 10×/0.30 EC Plan-Neofluar Ph1 objective (Zeiss), captured with a Zeiss AxioCam MRm. Images were acquired every 10 min for 20 h. Cells were tracked manually using ImageJ; tracking data was analyzed using the Chemotaxis Tool plugin (Ibidi).

talin = assay: GFP-Trap pulldown of talin by Caskin2-GFP constructs in GE11tetON β1 cells; assay type: binding; details: western blot, with and without doxycycline
Description: (§5) For analysis of protein in whole-cell lysates, cells were washed three times with cold PBS, lysed in Nonidet P-40 lysis buffer [20 mM Tris-HCl pH 7.5, 100 mM NaCl, 1% NP-40), supplemented with Na3VO4 (1.5 mM), NaF (15 mM), protease inhibitor cocktail (1:1000; Sigma-Aldrich) and phosphatase inhibitor cocktail 3 (1:100; Sigma-Aldrich)] and cleared by centrifugation at 14,000 g for 1 h at 4°C. After addition of an equal volume of 4× sample buffer (200 mM Tris-HCl pH 6.8, 10% SDS, 40% glycerol 0,1% Bromophenol Blue and 2% mercaptoethanol) and heating the samples at 95°C for 5 min, the samples were loaded on Novex NuPAGE 4–12% gradient Bis-Tris gels (Invitrogen) and transferred onto Immobilon® PVDF membranes. […]
as §2

[1] = system: endogenous Abi1, Wasf1, Cyfip2 and Nckap1; assay: GFP-Trap co-IP of endogenous WRC components in GE11tetONβ1 cells; assay type: binding
Description: as §5, §2

Abi1 = assay: Immunofluorescence colocalization of Caskin2-GFP constructs with Abi1 in GE11tetONβ1 cells; assay type: cell-based; details: cell periphery
Description: PA-JEB/β4 keratinocytes were seeded on glass coverslips and cultured for 24 h in complete KGM, and then continued to be cultured for a further 16 h in DMEM with 10% FCS. GE11^tetONβ1 and MCF7 cells were seeded on glass coverslips and cultured for 24 h in DMEM with 10% FCS. Cells were fixed in 2% paraformaldehyde and permeabilized with 0.2% Triton X-100 for 5 min, blocked with PBS containing 2% bovine serum albumin (BSA; Sigma-Aldrich) for 45 min and subsequently incubated with primary and secondary antibodies for 1 h. In between antibody steps, the coverslips were washed three times with PBS. Actin fibers were visualized by staining with Phalloidin–Alexa Fluor 647 (Cell Signaling Technology). Nuclei were stained with DAPI. Samples were mounted on glass slides in Mowiol after three washing steps with PBS. Images were acquired with a Leica TCS SP5 confocal microscope with a 63× (NA 1.4) oil objective. Software for image acquisition is Leica LAS AF 3.0.2 ([Wang et al., 2020b]).
Imaging analysis was performed using FIJI software ([Schindelin et al., 2012]). The levels of colocalization between Caskin2 and various other proteins, including integrin β4, FA proteins and CMSC components, was performed using Pearson's co-efficient analysis in the JACoP module of ImageJ ([Carisey et al., 2013]; [Wang et al., 2020b]).

14-3-3 proteins = assay: GFP-Trap co-IP of 14-3-3 proteins in GE11tetONβ1 cells; assay type: binding
Description: as §5, §2

pCaskin2 (S878) = assay: Caskin2 S878 phosphorylation (GFP-Trap, western blot) in GE11tetONβ1 cells; assay type: cell-based; details: for Caskin2 phosphorylation on S878 after growth factor: EGF 100 ng/ml or PDGF 50 ng/ml, serum-starved 16 h; for EGF-induced phosphorylation of Caskin2 at serine 878 with inhibitor: inhibitor 100 nM, 1 h pretreatment, EGF 100 ng/ml for 15 min
Excerpt: To explore the role of Caskin2-S878 further in regulating the Abi1 interaction, we developed a phospho-specific antibody targeting this serine. Unfortunately, high non-specific binding of the phospho-Caskin2 antibody protein sample prevented its consistent use in detecting phosphorylated Caskin2 in western blot analysis of whole-cell lysates. […] Abi1 functions downstream of growth factor receptor signaling to control Rac1-dependent actin rearrangements. Therefore, we hypothesized that Caskin2-S878 phosphorylation might occur downstream of growth factor receptor stimulation. To explore this, we conducted co-IP experiments using GE11^tetONβ1 cells stably expressing Caskin2-FL–GFP stimulated with either EGF or PDGF. […] To gain insight into the kinases involved in the EGF-induced phosphorylation of Caskin2 at serine 878, we pretreated the cells with mTOR (AZD8055) and MEK1/2 (Trametinib) inhibitors for 1 h before stimulation.
as §3, §4
For EGF- and PDGF-BB-induced stimulation of Caskin2 phosphorylation, cells were serum starved for 16 h in DMEM without FCS. […]

Caskin2–Abi1 = Caskin2–Abi1 binding after growth factor stimulation (GFP-Trap, western blot) in GE11tetONβ1 cells; assay type: cell-based; details: for Caskin2–Abi1 binding after growth factor: EGF 100 ng/ml or PDGF 50 ng/ml, serum-starved 16 h; for EGF-stimulated loss of Abi1 binding with inhibitor: inhibitor 100 nM, 1 h pretreatment, EGF 100 ng/ml for 15 min
Description: For analysis of protein in whole-cell lysates, cells were washed three times with cold PBS, lysed in Nonidet P-40 lysis buffer [20 mM Tris-HCl pH 7.5, 100 mM NaCl, 1% NP-40), supplemented with Na3VO4 (1.5 mM), NaF (15 mM), protease inhibitor cocktail (1:1000; Sigma-Aldrich) and phosphatase inhibitor cocktail 3 (1:100; Sigma-Aldrich)] and cleared by centrifugation at 14,000 g for 1 h at 4°C.
as §4
For EGF- and PDGF-BB-induced stimulation of Caskin2 phosphorylation, cells were serum starved for 16 h in DMEM without FCS. The serum-starved cells were then treated with 100 ng/ml EGF (Sigma-Aldrich) or 50 ng/ml PDGF-BB (Sigma-Aldrich) at 37°C for the indicated times. Serum-starved cells treated with EGF and the signal transduction inhibitors AZD8055 (mTOR inhibitor, Selleckchem) and Tramatinib (MEK1/2 inhibitor, Selleckchem) were first pre-treated with the inhibitor for 60 min before they were treated with the growth factor for 15 min.

endogenous talin = assay: GFP-Trap pulldown of talin by Caskin2-GFP constructs in COS-7 cells; assay type: binding; details: western blot, n=3
Description: as §1, §5, §2

## full-length exogenous talin: full-length exogenous talin, GFP-tagged
Caskin2
  Caskin2 binding to talin construct: only limited binding

## Caskin2-S878D–GFP: phosphomimetic mutant of Caskin2–GFP, S878 to aspartic acid
HA–Abi1; co-IP, phosphomimetic mutant
  reduction of HA–Abi1 binding: ~80%

## Caskin2-ΔLD–GFP: Caskin2 construct with the LD motif deleted (L1183–D1202 deleted) fused to GFP
GE11tetONβ1 cells
  cell motility: no difference in motility between Caskin2-FL–GFP- and Caskin2-ΔLD–GFP- expressing cells
talin
  talin binding: the LD motif is required for the interaction with talin

## Caskin2-S877D–GFP: phosphomimetic mutant of Caskin2–GFP, S877 to aspartic acid
HA–Abi1
  HA–Abi1 binding: no obvious difference in binding

## Caskin2-FL–GFP: full-length Caskin2 fused to GFP
GE11tetONβ1 cells
  increase in cell motility compared to GFP-only expression: ~45%
[1]
  precipitation of endogenous Abi1, Wasf1, Cyfip2 and Nckap1: precipitated endogenous Abi1, Wasf1, Cyfip2 and Nckap1
talin
  talin binding: the interaction is independent of integrin β1
Abi1
  colocalization with Abi1: colocalized with Abi1 at the cell periphery
14-3-3 proteins
  precipitation of 14-3-3 proteins: precipitated with both Caskin2-FL–GFP and Caskin2-PRR^4A–GFP
HA–Abi1
  HA–Abi1 binding: efficiently pulled down

## EGF: growth factor (Sigma-Aldrich)
pCaskin2 (S878)
  Caskin2 phosphorylation on S878 after growth factor: increase in Caskin2 phosphorylation on S878 within 5 min
Caskin2–Abi1
  Caskin2–Abi1 binding after growth factor: reduction in Caskin2–Abi1 binding

## Caskin2-PRR^4A–GFP: Caskin2–GFP with PxPxxPxR mutated to AxAxxAxA
GE11tetONβ1 cells
  cell motility: migrated at a similar speed as GFP-only-expressing cells
[1]
  precipitation of endogenous Abi1, Wasf1, Cyfip2 and Nckap1: none of these were precipitated
Abi1
  colocalization with Abi1: no such colocalization was observed
14-3-3 proteins
  precipitation of 14-3-3 proteins: precipitated with both Caskin2-FL–GFP and Caskin2-PRR^4A–GFP
Endogenous talin
  talin binding: talin binding was unaffected
HA–Abi1
  HA–Abi1 binding: neither of these constructs could precipitate co-expressed HA-tagged Abi1

## COc1ccc(-c2ccc3c(N4CCOC[C@@H]4C)nc(N4CCOC[C@@H]4C)nc3n2)cc1CO [AZD8055, reference compound]
pCaskin2 (S878)
  EGF-induced phosphorylation of Caskin2 at serine 878 with inhibitor: reduced phosphorylation of Caskin2
Caskin2–Abi1
  EGF-stimulated loss of Abi1 binding with inhibitor: only Trametinib, either alone or in combination with AZD8055 inhibited the EGF-stimulated loss of Abi1 binding

## Caskin2-ΔPRR–GFP: Caskin2–GFP lacking amino acids 746–1035
GE11tetONβ1 cells
  cell motility: migrated at a similar speed as GFP-only-expressing cells
Abi1
  colocalization with Abi1: no such colocalization was observed
Endogenous talin
  talin binding: talin binding was unaffected
HA–Abi1
  HA–Abi1 binding: neither of these constructs could precipitate co-expressed HA-tagged Abi1

## Talin-R2E–GFP: talin mutant carrying two reverse charge mutations (R1523E and K1530E)
Caskin2
  Caskin2 binding to talin construct: slightly increased binding

## Caskin2-4A–GFP: GFP-fused Caskin2 mutant with four amino acids (L1183, F1190, L1197, L1201) replaced by alanine
Endogenous talin
  talin binding: failed to pull down endogenous talin

## CC(=O)Nc1cccc(-n2c(=O)n(C3CC3)c(=O)c3c(Nc4ccc(I)cc4F)n(C)c(=O)c(C)c32)c1 [Trametinib, reference compound]
pCaskin2 (S878)
  EGF-induced phosphorylation of Caskin2 at serine 878 with inhibitor: reduced phosphorylation of Caskin2
Caskin2–Abi1
  EGF-stimulated loss of Abi1 binding with inhibitor: inhibited the EGF-stimulated loss of Abi1 binding

## PDGF
pCaskin2 (S878)
  Caskin2 phosphorylation on S878 after growth factor: increase in Caskin2 phosphorylation on S878 within 5 min
Caskin2–Abi1
  Caskin2–Abi1 binding after growth factor: reduction in Caskin2–Abi1 binding
